The nature of this data set: gradient 5% acetonitrile 3 min, to 50% in 2 min, to 85% in 15 min, held 3 min, 100 µL/min. The conditions noted are these: column: Zorbax Extend-C18 2.1 x 50 mm; eluents: water / acetonitrile, 0.1% formic acid. An outline of the steps:
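Retention times come from adduct peaks that were picked computationally and then checked by hand. The standards, pure and pooled in mixtures of ~100 molecules, were run on a Zorbax Extend-C18 column (2.1 × 50 mm, 1.8 μm) at 100 μL/min with water and acetonitrile, each with 0.1% formic acid. Detection was by quadrupole time-of-flight mass spectrometry in positive and negative ionization mode, with a dead volume of 40 μL and a dwell volume of 900 μL.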
Turning to `O=C(Cn1nc2nc(N3CCCC3)ccn2c1=O)NCc1ccc(F)cc1Cl`, the RP-LC retention time turned out to be 688 s.

For `Cc1ccc(C)c(N2CCN(c3ccnc(SCC(=O)Nc4ccc5c(c4)OCO5)n3)CC2)c1`, the RP-LC retention time was determined as 858 s. Compound `O=C(c1cccc2[nH]ccc12)N1CCCC(c2n[nH]c(C3CC3)n2)C1` (stereo not given) returned an RP-LC retention time of 606 s. In turn, `Cc1cccc(-c2nc(-c3cccc(-c4ccn[nH]4)c3)no2)c1` displayed an RP-LC retention time of 1100 s. Next, `COc1ccc(S(=O)(=O)CCc2noc(C(=O)NCCc3ccc(SC)cc3)n2)cc1`: 930 s.

The compound `CSc1cccc(NC(=O)CCCn2nc(-n3cccc3)c3c(C)cc(C)nc32)c1` displayed an RP-LC retention time of 1040 s.

Consider `Cc1sc(NC(=O)Cn2c(=O)sc3ccccc32)nc1-c1ccc(Cl)cc1`, for which the RP-LC retention time was determined as 1110 s. In turn, `CCC(C)NC(=O)N1CCN(Cc2nc3cc(C(=O)N(C)C)ccc3o2)CC1` (stereo not given) showed an RP-LC retention time of 587 s. `COc1ccc(C2C(C(=O)NCc3ccco3)c3ccccc3C(=O)N2C)cc1` (stereo not given): the RP-LC retention time turned out to be 776 s. For the compound `CC1(C)CC(=O)c2cn(-c3ccc(Cl)cc3)c(=O)c(C(=O)O)c2C1`, the RP-LC retention time came to 907 s. Next, `C=CCn1c(C)c(CC(=O)Nc2ccc(F)c(F)c2)c(=O)n2nc(-c3ccc(C)cc3)nc12`: 838 s; `CCC(=O)Nc1c(C)noc1/C=C/c1ccc(S(=O)(=O)N2CCC(C)CC2)s1`: 919 s. `COCCN(CCOC)Cc1c(C)[nH]c2c(C)c(C)ccc2c1=O` had an RP-LC retention time of 605 s.

In turn, `COc1ccc(-c2nc3cnccn3c2Nc2ccc(OC)c(OC)c2)cc1` registered an RP-LC retention time of 690 s. Next, `COc1ccc(-c2nc3cnccn3c2Nc2ccc(C(C)C)cc2)cc1`: 1040 s.

For the compound `COc1ccc(-n2ccc(=O)c(-c3nc(-c4ccc(Cl)cc4)no3)n2)cc1`, the RP-LC retention time was determined as 938 s. In the case of `O=C(c1cncc(Br)c1)N1CCc2cc(-c3csc(C4CC4)n3)ccc21` it was 1070 s. In the case of `CCc1nc(-c2ccc(S(=O)(=O)N3CCC(C(=O)NCc4ccc5c(c4)OCO5)CC3)cc2)no1` it was 929 s. Next, `O=C(c1ccc(-c2ccsc2)nc1)N1CCCCCC1`: 841 s; `CC1(C)CC(=O)c2cn(-c3ccccc3)c(=O)c(C(=O)NC3CC3)c2C1`: 963 s; `CC(C)NC(=O)N1Cc2ccccc2OC2(CCN(C)CC2)C1`: 591 s.

With `COc1ccc(Cl)cc1NC(=O)N1CCC(n2c(C)nc3cccnc32)CC1`, the RP-LC retention time stood at 682 s. Next, `COC(=O)[C@@H]1Cc2c([nH]c3ccccc23)C(CCc2ccccc2)N1C(C)=O` (stereo not given in full): 983 s; `Cc1nc(C(=O)Nc2ccc(F)c(Cl)c2)c(C)o1`: 958 s.

`CC(=O)c1ccc(N2CCN(C(=O)C(=O)c3cccn3C)CC2)cc1` yielded an RP-LC retention time of 735 s.

Take `COc1ccc(N2CCN(C(=O)c3cn4c(n3)CCCC4)CC2)cc1`: the RP-LC retention time was 574 s.

The compound `Cc1cc(NC(=O)c2ncccn2)no1` registered an RP-LC retention time of 577 s. In the case of `CCN1CCN(C(=O)CN2C(=O)C3CCCCN3c3ccc(C(=O)N4CCCCC4)cc32)CC1` (stereo not given) it was 632 s; in that of `CCCS(=O)(=O)N1CC(=O)N(c2ccc(F)cc2F)C(C)(C(=O)NC2CCCCCC2)C1` (stereo not given), 979 s; in that of `O=C(NCc1ccc2c(c1)OCO2)c1ccc2ccnc(N3CCN(C(=O)c4ccco4)CC3)c2c1`, 679 s.

`CCN1C(=O)c2cccnc2Sc2cc(C(=O)N3CCC(C)CC3)ccc21` yielded an RP-LC retention time of 798 s. In the case of `CCOC(=O)c1[nH]c(C)c(CCC(=O)N2CCC(C(=O)NCc3ccccc3OC)CC2)c1C` it was 800 s; in that of `c1ccc(-c2noc(NCCc3ccsc3)n2)cc1`, 969 s; in that of `CCOc1ccccc1NC(=O)C1CCN(c2cnc(N3CCCCC3)nc2)CC1`, 928 s.

`CCCOC(=O)C1=C(C)NC2=C(C(=O)C(C(=O)OC)C(C)C2)C1c1ccc(N(C)C)cc1` (stereo not given) returned an RP-LC retention time of 668 s. Next, `O=C(Nc1nccs1)C1CC(=O)N(CCc2c[nH]c3ccc(Cl)cc23)C1` (stereo not given): 745 s; `Cc1noc(CNC(=O)C2CCN(C(=O)Nc3ccccc3C(F)(F)F)CC2)n1`: 647 s; `Cc1ccc(S(=O)(=O)Cc2ccc(-c3nc(-c4cccc(-c5ccnn5C)c4)no3)cc2)cc1`: 1140 s.

With `Cc1noc(C2CN(C(=O)Nc3cc(F)ccc3F)CC23CCOCC3)n1` (stereo not given), the RP-LC retention time was found to be 733 s. With `O=C(O)C1CCN(S(=O)(=O)C2CC2)CC1`, the RP-LC retention time was determined as 585 s.

For the compound `COC(=O)c1c(NC(=O)CSc2nnnn2-c2ccccc2OC)sc2c1CCC2`, the RP-LC retention time came out at 1060 s. Next, `Cc1ccc(NC(=O)N2CCC3(CC2)NC(=O)c2cc(F)ccc2N3C)cc1C`: 832 s; `Cc1cc(-c2nnc(C3CCC3)o2)c(C)n1CC(=O)NCc1ccc2c(c1)OCO2`: 816 s; `COc1ccc(N2CC(C(=O)N3CCC(C(=O)N4CCC(C(N)=O)CC4)CC3)CC2=O)cc1` (stereo not given): 600 s. Next, `COc1ccc(-c2[nH]ncc2CN2CC(F)(F)C[C@H]2CN2CCOCC2)cc1`: 590 s; `COc1ccc(S(=O)(=O)NCCc2ccc(N3CCCC3)cc2)cc1OC`: 776 s. In the case of `CCOC(=O)[C@@H](N)Cc1ccc(O)c(O)c1` it was 579 s; in that of `COc1cccc(CNC(=O)C2(C)CCN(C(=O)Nc3ccc(C)c(Cl)c3)CC2)c1`, 930 s. Compound `CCCn1nnc2cc(-c3noc(COc4ccc(Cl)cc4)n3)ccc21` came in with an RP-LC retention time of 1120 s. In the case of `O=C(Nc1cccn2nc(C3CC3)nc12)c1cccs1` it was 788 s; in that of `CCc1cccc(C)c1NC(=O)C1CCN(S(=O)(=O)c2ccc3c(c2)NC(=O)CO3)CC1`, 818 s; in that of `COc1cccc(-c2ccc(=O)n(CCc3nc(-c4cc(OC)cc(OC)c4)no3)n2)c1`, 955 s. On to `COc1ccc(Br)cc1S(=O)(=O)NCCc1ccccc1`, for which the RP-LC retention time amounted to 962 s. Next, `O=C(NC(c1ccccc1)c1nnc(N2CCOCC2)o1)C1CCCCC1` (stereo not given): 735 s; `CCc1cc(=O)n(CC(=O)NCc2cccc(OC)c2)c(N)n1`: 584 s. Next, `O=S(=O)(c1ccc2c(c1)OCCO2)N1CCC(CN2CCCCCC2)CC1`: 645 s. For the compound `CCCCNC(=O)c1cnn(-c2cc(-c3nc(C)no3)ccn2)c1C`, the RP-LC retention time came to 853 s. The compound `CCCNC(=O)C1CCN(c2ccc(SCC(=O)Nc3cccc(C(C)C)c3)nn2)CC1` came in with an RP-LC retention time of 728 s. Next, `Cc1cc(NC(=O)c2cc(C)n3nccc3n2)ccc1F`: 942 s; `O=C(NCCc1ccsc1)C(=O)Nc1ccccc1F`: 878 s.

The values above are taken from the METLIN SMRT retention time set (Domingo-Almenara et al. 2019).
